Measurements reported in ChEMBL document CHEMBL3044745, “Synthesis and evaluation of biological and nonlinear optical properties of some novel 2,4-disubstituted [1,3]-thiazoles carrying 2-(aryloxymethyl)-phenyl moiety” (2013).

Columns and labels:
Type in all cases: functional
[1] = test system: Candida albicans; experiment: Antifungal activity against Candida albicans assessed as growth inhibition at 10 ug/disk; conditions: read-out: IZ
[2] = test system: Escherichia coli; experiment: Antibacterial activity against Escherichia coli assessed as growth inhibition at 10 ug/disk; conditions: read-out: IZ
[3] = test system: Bacillus subtilis; experiment: Antibacterial activity against Bacillus subtilis assessed as growth inhibition at 10 ug/disk; conditions: read-out: IZ
[4] = test system: Rattus norvegicus; experiment: Anti-inflammatory activity in Rattus norvegicus Wistar albino (rat) assessed as inhibition of carrageenan-induced paw edema at 10 mg/kg, po relative to untreated control
[5] = test system: Pseudomonas aeruginosa; experiment: Antibacterial activity against Pseudomonas aeruginosa assessed as growth inhibition at 10 ug/disk; conditions: read-out: IZ
[6] = test system: Staphylococcus aureus; experiment: Antibacterial activity against Staphylococcus aureus assessed as growth inhibition at 10 ug/disk; conditions: read-out: IZ
[7] = test system: Aspergillus niger; experiment: Antifungal activity against Aspergillus niger assessed as growth inhibition at 10 ug/disk; conditions: read-out: IZ

`Cc1ccc(OCc2ccccc2-c2nc(-c3cccc(Br)c3)cs2)cc1` gave a zone of inhibition at 10 µg/disc [1] of 14 mm, a zone of inhibition at 10 µg/disc [2] of 8 mm and a zone of inhibition at 10 µg/disc [3] of 12 mm. It also gave an inhibition in vivo at 10 mg/kg [4] of 44.5%, a zone of inhibition at 10 µg/disc [5] of 10 mm and a zone of inhibition at 10 µg/disc [6] of 10 mm. It also gave a zone of inhibition at 10 µg/disc [7] of 11 mm.

For `Clc1ccc(OCc2ccccc2-c2nc(-c3cccc(Br)c3)cs2)cc1`, the zone of inhibition at 10 µg/disc [1] was 20 mm, the zone of inhibition at 10 µg/disc [2] was 22 mm and the zone of inhibition at 10 µg/disc [3] was 20 mm. For the same compound, the inhibition in vivo at 10 mg/kg [4] was 42.9%, the zone of inhibition at 10 µg/disc [5] was 18 mm and the zone of inhibition at 10 µg/disc [6] was 22 mm. It also gave a zone of inhibition at 10 µg/disc [7] of 18 mm.

With `Cc1ccccc1OCc1ccccc1-c1nc(-c2ccc([N+](=O)[O-])cc2)cs1` the zone of inhibition at 10 µg/disc [1] was 12 mm, the zone of inhibition at 10 µg/disc [2] was 14 mm and the zone of inhibition at 10 µg/disc [3] was 12 mm. The inhibition in vivo at 10 mg/kg [4] was 46.7%, the zone of inhibition at 10 µg/disc [5] was 10 mm and the zone of inhibition at 10 µg/disc [6] was 10 mm. For the same compound, the zone of inhibition at 10 µg/disc [7] was 14 mm.

`Cc1cccc(OCc2ccccc2-c2nc(-c3ccc([N+](=O)[O-])cc3)cs2)c1` gave a zone of inhibition at 10 µg/disc [1] of 9 mm, a zone of inhibition at 10 µg/disc [2] of 11 mm and a zone of inhibition at 10 µg/disc [3] of 12 mm. For the same compound, the inhibition in vivo at 10 mg/kg [4] was 46.7%, the zone of inhibition at 10 µg/disc [5] was 10 mm and the zone of inhibition at 10 µg/disc [6] was 8 mm. The zone of inhibition at 10 µg/disc [7] was 8 mm.

With `Cc1ccc(OCc2ccccc2-c2nc(-c3ccc([N+](=O)[O-])cc3)cs2)cc1` the zone of inhibition at 10 µg/disc [1] was 11 mm, the zone of inhibition at 10 µg/disc [2] was 10 mm and the zone of inhibition at 10 µg/disc [3] was 10 mm. The inhibition in vivo at 10 mg/kg [4] was 56.9%, the zone of inhibition at 10 µg/disc [5] was 12 mm and the zone of inhibition at 10 µg/disc [6] was 12 mm. It also gave a zone of inhibition at 10 µg/disc [7] of 14 mm.

Compound `O=[N+]([O-])c1ccc(-c2csc(-c3ccccc3COc3ccc(Cl)cc3)n2)cc1` has a zone of inhibition at 10 µg/disc [1] of 20 mm, a zone of inhibition at 10 µg/disc [2] of 22 mm and a zone of inhibition at 10 µg/disc [3] of 18 mm. For the same compound, the inhibition in vivo at 10 mg/kg [4] was 67.1%, the zone of inhibition at 10 µg/disc [5] was 18 mm and the zone of inhibition at 10 µg/disc [6] was 22 mm. The zone of inhibition at 10 µg/disc [7] was 18 mm.

In the case of `Cc1ccccc1OCc1ccccc1-c1nc(CN2CCN(C(c3ccccc3)c3ccccc3)CC2)cs1`, the zone of inhibition at 10 µg/disc [1] is reported as 9 mm, the zone of inhibition at 10 µg/disc [2] is reported as 20 mm and the zone of inhibition at 10 µg/disc [3] is reported as 23 mm. For the same compound, the inhibition in vivo at 10 mg/kg [4] was 64%, the zone of inhibition at 10 µg/disc [5] was 18 mm and the zone of inhibition at 10 µg/disc [6] was 23 mm. The zone of inhibition at 10 µg/disc [7] was 8 mm.

Work on `Cc1cccc(OCc2ccccc2-c2nc(CN3CCN(C(c4ccccc4)c4ccccc4)CC3)cs2)c1` yielded a zone of inhibition at 10 µg/disc [1] of 10 mm, a zone of inhibition at 10 µg/disc [2] of 22 mm and a zone of inhibition at 10 µg/disc [3] of 20 mm. The inhibition in vivo at 10 mg/kg [4] was 64.1%, the zone of inhibition at 10 µg/disc [5] was 20 mm and the zone of inhibition at 10 µg/disc [6] was 19 mm. For the same compound, the zone of inhibition at 10 µg/disc [7] was 11 mm.

Compound `Cc1ccc(OCc2ccccc2-c2nc(CN3CCN(C(c4ccccc4)c4ccccc4)CC3)cs2)cc1` has a zone of inhibition at 10 µg/disc [1] of 10 mm, a zone of inhibition at 10 µg/disc [2] of 18 mm and a zone of inhibition at 10 µg/disc [3] of 21 mm. For the same compound, the inhibition in vivo at 10 mg/kg [4] was 63.9%, the zone of inhibition at 10 µg/disc [5] was 18 mm and the zone of inhibition at 10 µg/disc [6] was 20 mm. The zone of inhibition at 10 µg/disc [7] was 8 mm.

Compound `Clc1ccc(OCc2ccccc2-c2nc(CN3CCN(C(c4ccccc4)c4ccccc4)CC3)cs2)cc1` has a zone of inhibition at 10 µg/disc [1] of 28 mm, a zone of inhibition at 10 µg/disc [2] of 28 mm and a zone of inhibition at 10 µg/disc [3] of 26 mm. It also gave an inhibition in vivo at 10 mg/kg [4] of 64.9%, a zone of inhibition at 10 µg/disc [5] of 26 mm and a zone of inhibition at 10 µg/disc [6] of 28 mm. For the same compound, the zone of inhibition at 10 µg/disc [7] was 24 mm.

`Cc1ccccc1OCc1ccccc1-c1nc(CN2CCN(C(c3ccccc3)c3ccc(Cl)cc3)CC2)cs1` (stereo not drawn) showed a zone of inhibition at 10 µg/disc [1] of 22 mm, a zone of inhibition at 10 µg/disc [2] of 26 mm and a zone of inhibition at 10 µg/disc [3] of 28 mm. The inhibition in vivo at 10 mg/kg [4] was 63.1%, the zone of inhibition at 10 µg/disc [5] was 24 mm and the zone of inhibition at 10 µg/disc [6] was 28 mm. The zone of inhibition at 10 µg/disc [7] was 20 mm.

`Cc1cccc(OCc2ccccc2-c2nc(CN3CCN(C(c4ccccc4)c4ccc(Cl)cc4)CC3)cs2)c1` (stereo not drawn) gave a zone of inhibition at 10 µg/disc [1] of 20 mm, a zone of inhibition at 10 µg/disc [2] of 27 mm and a zone of inhibition at 10 µg/disc [3] of 28 mm. It also gave an inhibition in vivo at 10 mg/kg [4] of 62.6%, a zone of inhibition at 10 µg/disc [5] of 25 mm and a zone of inhibition at 10 µg/disc [6] of 28 mm. It also gave a zone of inhibition at 10 µg/disc [7] of 18 mm.

For `Cc1ccc(OCc2ccccc2-c2nc(CN3CCN(C(c4ccccc4)c4ccc(Cl)cc4)CC3)cs2)cc1` (stereo not drawn), the zone of inhibition at 10 µg/disc [1] was 20 mm, the zone of inhibition at 10 µg/disc [2] was 28 mm and the zone of inhibition at 10 µg/disc [3] was 28 mm. It also gave an inhibition in vivo at 10 mg/kg [4] of 56.9%, a zone of inhibition at 10 µg/disc [5] of 24 mm and a zone of inhibition at 10 µg/disc [6] of 28 mm. It also gave a zone of inhibition at 10 µg/disc [7] of 19 mm.

In the case of `O=C(O)c1cn(C2CC2)c2cc(N3CCNCC3)c(F)cc2c1=O` [CIPROFLOXACIN], the zone of inhibition at 10 µg/disc [2] is reported as 28 mm, the zone of inhibition at 10 µg/disc [3] is reported as 26 mm and the zone of inhibition at 10 µg/disc [5] is reported as 25 mm. The zone of inhibition at 10 µg/disc [6] was 26 mm.

`O=C(O)Cc1ccccc1Nc1c(Cl)cccc1Cl` [DICLOFENAC SODIUM] gave an inhibition in vivo at 10 mg/kg [4] of 75.9%.

Compound `OC(Cn1cncn1)(Cn1cncn1)c1ccc(F)cc1F` [FLUCONAZOLE] has a zone of inhibition at 10 µg/disc [1] of 26 mm and a zone of inhibition at 10 µg/disc [7] of 25 mm.
